Results reported in patent US20020037560A1, “Bicyclic terpenes and synthesis thereof” (priority 2000, published 2002).

Biological target: T1, Tobacco 5-epi-aristolochene synthase (TEAS) (Nicotiana tabacum, UniProt Q40577)
T1 construct: made in house
T1 sequence (Q40577 1-548): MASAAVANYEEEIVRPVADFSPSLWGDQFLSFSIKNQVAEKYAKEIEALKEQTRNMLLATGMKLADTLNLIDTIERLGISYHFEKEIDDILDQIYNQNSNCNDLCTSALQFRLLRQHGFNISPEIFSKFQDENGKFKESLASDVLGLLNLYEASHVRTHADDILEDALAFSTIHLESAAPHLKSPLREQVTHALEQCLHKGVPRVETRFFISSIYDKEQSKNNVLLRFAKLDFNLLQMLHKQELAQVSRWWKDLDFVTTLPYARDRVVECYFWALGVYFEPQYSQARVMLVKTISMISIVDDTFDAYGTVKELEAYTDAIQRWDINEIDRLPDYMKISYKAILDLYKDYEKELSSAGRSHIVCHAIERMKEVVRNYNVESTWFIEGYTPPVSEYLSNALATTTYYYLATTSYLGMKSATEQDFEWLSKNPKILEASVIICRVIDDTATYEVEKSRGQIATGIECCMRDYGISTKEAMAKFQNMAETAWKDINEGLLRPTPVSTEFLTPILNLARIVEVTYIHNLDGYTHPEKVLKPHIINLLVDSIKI
Test: TEAS activity assay (3H-FPP to 3H-5-epi-aristolochene, hexane partitioning)
Assay type: biochemical
Procedure: Kinetic Characterization of the Interaction of AGPP with TEAS. The assay for TEAS activity is based upon partitioning of the hydrophobic product (^3H-5-epi-aristolochene) into an organic solvent while the hydrophilic substrate (^3H-FPP) remains in the aqueous phase (i.e. Vögeli & Chappell, 1988; Back et al., 1994; Mathis et al. 1997). The Ki describing AGPP interaction with TEAS was characterized by measuring initial velocities for a matrix of reactions. Reactions (50 μl) containing 200 mM Tris-Cl, pH 7.5, 40 mM MgCl2, 50-250 nM TEAS, and 0.2 μCi ^3H-FPP, carrier-free or in combination with unlabeled FPP to give final substrate concentrations of 0.2-10 μM. Fixed concentrations of AGPP ranged from 0-150 μM. Reactions were initiated by the addition of enzyme and were incubated for 5 min. at 37° C. Reactions were quenched by vortexing against 150 μl hexane. After a brief centrifugation, 100 μl of the hexane phase was treated with approximately 20 mg of silica powder to remove any contaminating FPP or farnesol, the latter of which may be generated by contaminating phosphatase activity. Following vortexing and a brief centrifugation to pellet the silica, 50 μl of the hexane phase was mixed with 4 ml of liquid scintillation cocktail and analyzed for radioactivity (disintegrations per minute). Determination of reaction rate was based on percent conversion to product, the value for which was obtained by comparing the radioactivity in the hexane extract to that in an untreated aliquot of the assay mixture. […] Data were analyzed using Enzyme Kinetics V 1.5 (Trinity Software).
Kinetic Characterization of the Interaction of AGPP with TEAS. As a synthetic analog of FPP, AGPP (2) may potentially bind within the TEAS active site and thereby inhibit the sesquiterpene synthase activity of this enzyme. The nature of the potential interaction between TEAS and AGPP was characterized through a series of TEAS activity assays in which the ability of TEAS to produce ^3H-5-epi-aristolochene from ^3H-FPP was monitored in the presence of unlabeled AGPP. […]

Compound	Km (at 37° C., read-out: KM, TEAS utilization of FPP as a substrate) [µM]	mode of inhibition of TEAS-catalyzed cyclization of FPP (Lineweaver-Burk plots, FIG. 1) (intersecting Lineweaver-Burk plots)	Ki (recombinant TEAS, 3H-FPP substrate 0.2-10 μM, AGPP 0-150 μM, 5 min at 37° C., read-out: Ki for the inhibition of TEAS activity) [µM]
CC(C)=CCC/C(C)=C/CC/C(C)=C/COP(=O)(O)OP(=O)(O)O [FPP]	5.4		
C/C(=C\COP(=O)(O)OP(=O)(O)O)CC/C=C(\C)CNc1ccccc1 [AGPP, 8-anilino-geranyl pyrophosphate]		competitive inhibitor	5.9 ± 1.8
